The values below come from patent US7041698B2, “Hepatitis C virus inhibitors” (Bristol-Myers Squibb Company, priority 2002, dated 2006).

The structures appear in SMILES notation. Read-outs that look alike come from different tables or passages of the source. Where only a bound is given, the exact number is not on record here.

The target of experiment [1] is T1, HCV NS3/4A protease complex (UniProt P27958, C1454S/C1711G, species not given).
T1 construct: fused on or other part: Three-lysine solubilising tail at the C-terminus of NS4A
Kind of experiment: Recombinant HCV NS3/4A protease complex FRET peptide assay (strain not stated). Type of experiment: biochemical.

Experiment [2] has as its system HCV replicon in Huh7 cells. Kind of experiment: HCV replicon cell-based assay. Set-up: species or system HCV strain 1B. The note with it: Hepatitis C virus, Huh-7, 96 h, HCV replicon, 4 days, read-out: EC50 range. In a few lines: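 Huh7 cells carrying a genotype 1b subgenomic replicon (NS3-NS5B, neo) treated 4 days at 37° C with compound (0.5% DMSO final). NS3 protease activity read in lysates with 10 μM FRET peptide (340/490 nm, kinetic), giving EC50. Confirmed by Taqman qRT-PCR of HCV RNA and a Renilla luciferase replicon.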

The mark [3] stands for this setting: HCV NS3/4A protease enzyme assay, read-out: IC50 range.

As to `C=CC1C[C@]1(NC(=O)[C@@H]1C[C@@H](OC(=O)Nc2cc(C)ccc2-c2nccs2)CN1C(=O)[C@@H](NC(=O)OC(C)(C)C)C(C)(C)C)C(=O)NS(=O)(=O)C1CC1` (stereo partly drawn) [Compound 94, BocNH-P3(t-BuGly)-P2(Hyp(O—CO(NH—(5-Methyl-2-thiazol-2-yl-phenyl))))-P1(1R,2S VinylAcca)—CONHSO2Cyclopropane], the IC50 in experiment [1] (setting [3]) is less than 100 nM. The concentration for a half-maximal effect (EC50) in experiment [2] was less than 100 nM.
`C=CC1C[C@]1(NC(=O)[C@@H]1C[C@@H](OC(=O)Nc2nc(Cl)c(Cl)nc2C(=O)OC)CN1C(=O)[C@@H](NC(=O)OC(C)(C)C)C(C)(C)C)C(=O)NS(=O)(=O)C1CC1` (stereo partly drawn) [Compound 35, BocNH-P3(t-BuGly)-P2(Hyp(O—CO(NH-3-(5,6-Dichloro-pyrazine-2-carboxylic acid methyl ester))))-P1(1R,2S VinylAcca)—CONHSO2Cyclopropane]: the IC50 in experiment [1] (setting [3]) is less than 100 nM. Also, the EC50 in experiment [2] is greater than 10000 nM.
Taken in the same sequence, the figures for `C=CC1C[C@]1(NC(=O)[C@@H]1C[C@@H](OC(=O)Nc2cccc(Cl)c2Cl)CN1C(=O)[C@@H](NC(=O)OC(C)(C)C)C(C)(C)C)C(=O)NS(=O)(=O)C1CC1` (stereo partly drawn) [Compound 31, BocNH-P3(t-BuGly)-P2(Hyp(O—CO(NH—(2,3-dichloro-phenyl))))-P1(1R,2S VinylAcca)—CONHSO2Cyclopropane] were less than 100 nM and 100 to 1000 nM.
Taken in the same sequence, the figures for `C=CC1C[C@]1(NC(=O)[C@@H]1C[C@@H](OC(=O)Nc2ccccc2CC)CN1C(=O)[C@@H](NC(=O)OC(C)(C)C)C(C)(C)C)C(=O)NS(=O)(=O)C1CC1` (stereo partly drawn) [Compound 59, BocNH-P3(t-BuGly)-P2(Hyp(O—CO(NH—(2-ethyl-phenyl))))-P1(1R,2S VinylAcca)—CONHSO2Cyclopropane] were 100 to 1000 nM and 1000 to 10000 nM.
`C=CC1C[C@]1(NC(=O)[C@@H]1C[C@@H](OC(=O)Nc2ccccc2-c2ccc(C)o2)CN1C(=O)[C@@H](NC(=O)OC(C)(C)C)C(C)(C)C)C(=O)NS(=O)(=O)C1CC1` (stereo partly shown) [Compound 81]: the IC50 in experiment [1] (setting [3]) was less than 100 nM. Besides, in experiment [2], the EC50 is less than 100 nM.
Turning to `C=CC1C[C@]1(NC(=O)[C@@H]1C[C@@H](OC(=O)N2CCCCC2)CN1C(=O)[C@@H](NC(=O)OC(C)(C)C)C(C)(C)C)C(=O)NS(=O)(=O)C1CC1` (stereo partly drawn) [Compound 14, BocNH-P3(t-BuGly)-P2(Hyp(O—CO(N,N-(piperdino))))-P1(1R,2S VinylAcca)—CONHSO2Cyclopropane], the IC50 in experiment [1] (setting [3]) lay in the range of 100 to 1000 nM. The concentration giving a half-maximal response (EC50) in experiment [2] lay in the range of 1000 to 10000 nM.
As for `C=CC1C[C@]1(NC(=O)[C@@H]1C[C@@H](OC(=O)N(C(C)C)C(C)C)CN1C(=O)[C@@H](NC(=O)OC(C)(C)C)C(C)(C)C)C(=O)NS(=O)(=O)C1CC1` (stereo partly drawn) [Compound 45, BocNH-P3(t-BuGly)-P2(Hyp(O—CO(N,N-diisopropyl)))-P1(1R,2S VinylAcca)—CONHSO2Cyclopropane], the IC50 in experiment [1] (read-out: IC50 range, HCV NS3/4A protease enzyme assay) was less than 100 nM. In experiment [2], the EC50 was in the range of 100 to 1000 nM.
Regarding `C=CC1C[C@]1(NC(=O)[C@@H]1C[C@@H](OC(=O)Nc2cc(C)ccc2-n2cccn2)CN1C(=O)[C@@H](NC(=O)OC(C)(C)C)C(C)(C)C)C(=O)NS(=O)(=O)C1CC1` (stereo partly drawn) [Compound 96, BocNH-P3(t-BuGly)-P2(Hyp(O—CO(NH—(5-Methyl-2-pyrazol-1-yl-phenyl))))-P1(1R,2S VinylAcca)—CONHSO2Cyclopropane], the IC50 in experiment [1] (setting [3]) is less than 100 nM. The EC50 in experiment [2] is less than 100 nM.
Take `C=CC1C[C@]1(NC(=O)[C@@H]1C[C@@H](OC(=O)NCc2ccccc2Cl)CN1C(=O)[C@@H](NC(=O)OC(C)(C)C)C(C)(C)C)C(=O)NS(=O)(=O)C1CC1` (stereo partly drawn) [Compound 26, BocNH-P3(t-BuGly)-P2(Hyp(O—CO(NH—(2-chloro-benzyl))))-P1(1R,2S VinylAcca)—CONHSO2Cyclopropane]: the IC50 in experiment [1] (setting [3]) is less than 100 nM. For the same compound, the EC50 in experiment [2] is 1000 to 10000 nM.
Taken in the same sequence, the figures for `C=CC1C[C@]1(NC(=O)[C@@H]1C[C@@H](OC(=O)Nc2cc(Cl)nc(Cl)c2)CN1C(=O)[C@@H](NC(=O)OC(C)(C)C)C(C)(C)C)C(=O)NS(=O)(=O)C1CC1` (stereo partly drawn) [Compound 18, BocNH-P3(t-BuGly)-P2(Hyp(O—CO(NH—(2,6-Dichloro-pyridin-4-yl))))-P1(1R,2S VinylAcca)—CONHSO2Cyclopropane] were 100 to 1000 nM and greater than 10000 nM.
Taken in the same sequence, the figures for `C=CC1C[C@]1(NC(=O)[C@@H]1C[C@@H](OC(=O)Nc2cccc(C)c2C)CN1C(=O)[C@@H](NC(=O)OC(C)(C)C)C(C)(C)C)C(=O)NS(=O)(=O)C1CC1` (stereo partly drawn) [Compound 42, BocNH-P3(t-BuGly)-P2(Hyp(O—CO(NH—(2,3-Dimethyl-phenyl))))-P1(1R,2S VinylAcca)—CONHSO2Cyclopropane] were less than 100 nM and 1000 to 10000 nM.
For `C=CC1C[C@]1(NC(=O)[C@@H]1C[C@@H](OC(=O)Nc2ccccc2C)CN1C(=O)[C@@H](NC(=O)OC(C)(C)C)C(C)(C)C)C(=O)NS(=O)(=O)C1CC1` (stereo partly shown) [Compound 57], in that order: 100 to 1000 nM and 1000 to 10000 nM.
Turning to `C=CC1C[C@]1(NC(=O)[C@@H]1C[C@@H](OC(=O)Nc2cc(C)ccc2F)CN1C(=O)[C@@H](NC(=O)OC(C)(C)C)C(C)(C)C)C(=O)NS(=O)(=O)C1CC1` (stereo partly drawn) [Compound 21, BocNH-P3(t-BuGly)-P2(Hyp(O—CO(NH—(2-fluoro-5-methyl-phenyl))))-P1(1R,2S VinylAcca)—CONHSO2Cyclopropane], in experiment [1] (setting [3]), the IC50 was less than 100 nM. Further, in experiment [2], the EC50 was 100 to 1000 nM.
For the compound `C=CC1C[C@]1(NC(=O)[C@@H]1C[C@@H](OC(=O)N2CCOCC2)CN1C(=O)[C@@H](NC(=O)OC(C)(C)C)C(C)(C)C)C(=O)NS(=O)(=O)C1CC1` (stereo partly drawn) [Compound 4, BocNH-P3(t-BuGly)-P2(Hyp(O—CO—(4-morpholino)))-P1(1R,2S VinylAcca)—CONHSO2Cyclopropane], the IC50 in experiment [1] (setting [3]) is 100 to 1000 nM. The half-maximal effective concentration (EC50) in experiment [2] was greater than 10000 nM.
For `C=C[C@@H]1C[C@]1(NC(=O)[C@@H]1C[C@@H](OC(=O)Nc2ccccc2C(=O)OCC)CN1C(=O)[C@@H](NC(=O)OCC)C(C)(C)C)C(=O)NS(=O)(=O)C1CC1` [Compound 111], the IC50 in experiment [1] (setting [3]) was less than 100 nM. Further, in experiment [2], the EC50 lay in the range of 100 to 1000 nM.
For `C=CC1C[C@]1(NC(=O)[C@@H]1C[C@@H](OC(=O)N(CCCC)CCCC)CN1C(=O)[C@@H](NC(=O)OC(C)(C)C)C(C)(C)C)C(=O)NS(=O)(=O)C1CC1` (stereo partly drawn) [Compound 46, BocNH-P3(t-BuGly)-P2(Hyp(O—CO(N,N-dibutyl)))-P1(1R,2S VinylAcca)—CONHSO2Cyclopropane], in that order: 100 to 1000 nM and 1000 to 10000 nM.
Taken in the same sequence, the figures for `C=CC1C[C@]1(NC(=O)[C@@H]1C[C@@H](OC(=O)Nc2ccccc2-n2nccn2)CN1C(=O)[C@@H](NC(=O)OC(C)(C)C)C(C)(C)C)C(=O)NS(=O)(=O)C1CC1` (stereo partly drawn) [Compound 93, BocNH-P3(t-BuGly)-P2(Hyp(O—CO(NH—(2-[1,2,3]Triazol-2-yl-phenyl))))-P1(1R,2S VinylAcca)—CONHSO2Cyclopropane] were less than 100 nM and 100 to 1000 nM.
Taken in the same sequence, the figures for `C=CC1C[C@]1(NC(=O)[C@@H]1C[C@@H](OC(=O)Nc2cc([N+](=O)[O-])ccc2C)CN1C(=O)[C@@H](NC(=O)OC(C)(C)C)C(C)(C)C)C(=O)NS(=O)(=O)C1CC1` (stereo partly drawn) [Compound 15, BocNH-P3(t-BuGly)-P2(Hyp(O—CO(NH—(2-methyl-5-nitro-phenyl))))-P1(1R,2S VinylAcca)—CONHSO2Cyclopropane] were less than 100 nM and 1000 to 10000 nM.
In the case of `C=CC1C[C@]1(NC(=O)[C@@H]1C[C@@H](OC(=O)Nc2ccccc2N2CCOCC2)CN1C(=O)[C@@H](NC(=O)OC(C)(C)C)C(C)(C)C)C(=O)NS(=O)(=O)C1CC1` (stereo partly drawn) [Compound 82, BocNH-P3(t-BuGly)-P2(Hyp(O—CO(NH-2-(morpholin-4-yl-phenyl))))-P1(1R,2S VinylAcca)—CONHSO2Cyclopropane], the IC50 in experiment [1] (setting [3]) is less than 100 nM. For the same compound, in experiment [2], the 50% effective concentration (EC50) lay in the range of 100 to 1000 nM.
For the compound `C=CC1C[C@]1(NC(=O)[C@@H]1C[C@@H](OC(=O)Nc2ccc(Cl)cc2-c2cc(C)n[nH]2)CN1C(=O)[C@@H](NC(=O)OC(C)(C)C)C(C)(C)C)C(=O)NS(=O)(=O)C1CC1` (stereo partly drawn) [Compound 78, BocNH-P3(t-BuGly)-P2(Hyp(O—CO(NH-1-(4-Chloro-2-(5-methyl-2H-pyrazol-3-yl)phenyl))))-P1(1R,2S VinylAcca)—CONHSO2Cyclopropane], the IC50 in experiment [1] (setting [3]) lay in the range of 100 to 1000 nM. Also, in experiment [2], the EC50 was greater than 10000 nM.
Taken in the same sequence, the figures for `C=CC1C[C@]1(NC(=O)[C@@H]1C[C@@H](OC(=O)Nc2ccccc2-n2nc3cc(OC)c(OC)cc3n2)CN1C(=O)[C@@H](NC(=O)OC(C)(C)C)C(C)(C)C)C(=O)NS(=O)(=O)C1CC1` (stereo partly drawn) [Compound 87, BocNH-P3(t-BuGly)-P2(Hyp(O—CO(NH—(2-(5,6-Dimethoxy-benzotriazol-2-yl)-phenyl))))-P1(1R,2S VinylAcca)—CONHSO2Cyclopropane] were less than 100 nM and less than 100 nM.
For `C=CC1C[C@]1(NC(=O)[C@@H]1C[C@@H](OC(=O)Nc2ccc(OC)cc2[N+](=O)[O-])CN1C(=O)[C@@H](NC(=O)OC(C)(C)C)C(C)(C)C)C(=O)NS(=O)(=O)C1CC1` (stereo partly drawn) [Compound 41, BocNH-P3(t-BuGly)-P2(Hyp(O—CO(NH—(4-Methoxy-2-nitro-phenyl))))-P1(1R,2S VinylAcca)—CONHSO2Cyclopropane], in that order: less than 100 nM and 1000 to 10000 nM.
With `C=CC1C[C@]1(NC(=O)[C@@H]1C[C@@H](OC(=O)Nc2cccc(C(=O)OC)c2)CN1C(=O)[C@@H](NC(=O)OC(C)(C)C)C(C)(C)C)C(=O)NS(=O)(=O)C1CC1` (stereo partly drawn) [Compound 40, BocNH-P3(t-BuGly)-P2(Hyp(O—CO(NH—(3-benzoic acid methyl ester))))-P1(1R,2S VinylAcca)—CONHSO2Cyclopropane], the IC50 in experiment [1] (setting [3]) is less than 100 nM. For the same compound, the EC50 in experiment [2] lay in the range of 1000 to 10000 nM.
